Experimental findings from ChEMBL document CHEMBL5370584, “Reprogramming Energy Metabolism with Synthesized PDK Inhibitors Based on Dichloroacetate Derivatives and Targeted Delivery Systems for Enhanced Cancer Therapy” (J Med Chem, 2023) are described below.

The nature of data set [1]: Inhibition of PDK (unknown origin). The arrangement: species or system Homo sapiens.
Data set [2] can be described thus: Inhibition of PDK (unknown origin) incubated for 10 mins in presence of ATP. The arrangement: species or system Homo sapiens.
In data set [3] the test system is MOLM-13. Briefly: Antiproliferative activity against human MOLM-13 cells assessed as inhibition of cell growth incubated for 24 hrs by MTT assay. The class given is functional, cell-based. Particulars: MOLM-13, 24 h. In general terms: Formazan colour is commonly taken as a measure of viable cells.
For data set [4], the system named is 4T1. Briefly: Antiproliferative activity against mouse 4T1 cells assessed as inhibition of cell growth incubated for 24 hrs by MTT assay. The class given is functional, cell-based. The note with it: 4T1, 24 h.
Data set [5] deals with NB-4. Briefly: Antiproliferative activity against human NB4 cells assessed as inhibition of cell growth incubated for 24 hrs by MTT assay. The class given is functional, cell-based. The note with it: NB-4, 24 h.
The subject of data set [6] is HeLa. The data set is described as follows: Antiproliferative activity against human HeLa cells assessed as inhibition of cell growth incubated for 24 hrs by MTT assay. Type of data set: functional, cell-based.
The nature of data set [7]: (§1) Antiproliferative activity against African green monkey COS7 cells assessed as inhibition of cell growth incubated for 24 hrs by MTT assay. The class given is toxicity, cell-based, Chlorocebus aethiops, COS-7. Particulars: African green monkey (Chlorocebus aethiops), COS-7 cells.
Data set [8] addresses [Pyruvate dehydrogenase (acetyl-transferring)] kinase isozyme 1, mitochondrial (Homo sapiens, UniProt Q15118). Briefly: Inhibition of PDK1 (unknown origin) incubated for 30 mins in presence of ATP by kinase glo luminescent kinase assay. On the technique in general: Kinase-Glo reads ATP consumption through a luciferase reaction.
Data set [9] concerns MCF7. The data set is described as follows: Antiproliferative activity against human MCF7 cells assessed as inhibition of cell growth incubated for 24 hrs by MTT assay. Type of data set: functional, cell-based. Particulars: MCF7, 24 h.
For data set [10], the system named is Prostate cell. The data set is described as follows: Antiproliferative activity against human prostate cell assessed as inhibition of cell viability measured after 72 hrs by MTT assay. Type of data set: functional, cell-based.
In data set [11] the test system is Breast cancer cell line. The data set is described as follows: Antiproliferative activity against human Breast cancer cell line assessed as inhibition of cell viability measured after 72 hrs by MTT assay. Type of data set: functional, cell-based.
Data set [12] has as its system 4T1. The data set is described as follows: Inhibition of PDK1 expression in mouse 4T1 cells at 4 uM incubated for 24 hrs by Western blot analysis. Type of data set: functional, cell-based. In general terms: A western blot detects proteins with antibodies after separation by electrophoresis.
Data set [13] has as its target [Pyruvate dehydrogenase (acetyl-transferring)] kinase isozyme 2, mitochondrial (Mus musculus) (UniProt Q9JK42). The data set is described as follows: Inhibition of PDK2 transcription in mouse 4T1 cells at 4 uM incubated for 24 hrs by qPCR analysis. Type of data set: cell-based.
The target of data set [14] is [Pyruvate dehydrogenase (acetyl-transferring)] kinase isozyme 1, mitochondrial (Mus musculus) (UniProt Q8BFP9). The data set is described as follows: Inhibition of PDK1 transcription in mouse 4T1 cells at 4 uM incubated for 24 hrs by qPCR analysis. The class given is cell-based.
The target in data set [15] is [Pyruvate dehydrogenase (acetyl-transferring)] kinase isozyme 4, mitochondrial (Mus musculus) (UniProt O70571). The data set is described as follows: Inhibition of PDK4 transcription in mouse 4T1 cells at 4 uM incubated for 24 hrs by qPCR analysis. The class given is cell-based.
Data set [16] concerns the target [Pyruvate dehydrogenase (acetyl-transferring)] kinase isozyme 3, mitochondrial (Mus musculus) (UniProt Q922H2). The data set is described as follows: Inhibition of PDK3 transcription in mouse 4T1 cells at 4 uM incubated for 24 hrs by qPCR analysis. The class given is cell-based.
Data set [17] deals with 4T1. The data set is described as follows: Inhibition of glycolysis in mouse 4T1 cell lysates assessed as reduction in extracellular acidification rate at 2 uM measured after 6 hrs. Type of data set: functional, cell-based.
In data set [18] the test system is 4T1. Briefly: Inhibition of PDK4 expression in mouse 4T1 cells at 4 uM incubated for 24 hrs by Western blot analysis. The class given is functional, cell-based.
Data set [19] has as its system 4T1. The data set is described as follows: Inhibition of glycolysis in mouse 4T1 cell lysates assessed as reduction in extracellular acidification rate at 20 mM measured after 6 hrs. Type of data set: functional, cell-based.
The subject of data set [20] is COS-7. The data set is described as §1. The class given is toxicity, cell-based, Chlorocebus aethiops. Particulars: cos-7.

Activity calls are given as the source filed them. The calls are words filed in the database; no cut-off is given here.

Chain of [Pyruvate dehydrogenase (acetyl-transferring)] kinase isozyme 1, mitochondrial (Q15118 whole entry): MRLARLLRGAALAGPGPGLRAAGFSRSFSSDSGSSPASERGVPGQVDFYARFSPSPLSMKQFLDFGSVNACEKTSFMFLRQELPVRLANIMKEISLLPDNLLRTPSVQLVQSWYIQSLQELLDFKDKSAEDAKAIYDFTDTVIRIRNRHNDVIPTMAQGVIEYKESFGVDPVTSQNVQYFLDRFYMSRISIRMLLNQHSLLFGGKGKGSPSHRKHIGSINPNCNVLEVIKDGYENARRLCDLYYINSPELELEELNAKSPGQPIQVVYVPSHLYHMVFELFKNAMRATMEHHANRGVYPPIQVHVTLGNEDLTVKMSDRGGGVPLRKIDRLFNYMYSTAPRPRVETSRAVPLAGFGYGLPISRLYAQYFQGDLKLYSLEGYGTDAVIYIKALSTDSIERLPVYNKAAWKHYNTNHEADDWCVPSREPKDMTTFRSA
Chain of [Pyruvate dehydrogenase (acetyl-transferring)] kinase isozyme 4, mitochondrial (Mus musculus) (O70571 whole entry): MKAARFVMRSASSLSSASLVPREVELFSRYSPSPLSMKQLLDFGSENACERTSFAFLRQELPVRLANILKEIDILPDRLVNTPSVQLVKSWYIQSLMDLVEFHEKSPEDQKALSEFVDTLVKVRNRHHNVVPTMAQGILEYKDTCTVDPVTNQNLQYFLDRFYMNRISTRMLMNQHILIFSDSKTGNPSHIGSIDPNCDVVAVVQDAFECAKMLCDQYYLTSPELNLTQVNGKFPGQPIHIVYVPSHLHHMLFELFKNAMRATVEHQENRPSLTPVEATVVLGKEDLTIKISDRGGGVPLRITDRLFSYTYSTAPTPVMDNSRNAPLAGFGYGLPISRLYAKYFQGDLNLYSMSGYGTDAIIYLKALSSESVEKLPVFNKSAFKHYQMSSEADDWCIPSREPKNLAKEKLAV
Chain of [Pyruvate dehydrogenase (acetyl-transferring)] kinase isozyme 3, mitochondrial (Mus musculus) (Q922H2 whole entry): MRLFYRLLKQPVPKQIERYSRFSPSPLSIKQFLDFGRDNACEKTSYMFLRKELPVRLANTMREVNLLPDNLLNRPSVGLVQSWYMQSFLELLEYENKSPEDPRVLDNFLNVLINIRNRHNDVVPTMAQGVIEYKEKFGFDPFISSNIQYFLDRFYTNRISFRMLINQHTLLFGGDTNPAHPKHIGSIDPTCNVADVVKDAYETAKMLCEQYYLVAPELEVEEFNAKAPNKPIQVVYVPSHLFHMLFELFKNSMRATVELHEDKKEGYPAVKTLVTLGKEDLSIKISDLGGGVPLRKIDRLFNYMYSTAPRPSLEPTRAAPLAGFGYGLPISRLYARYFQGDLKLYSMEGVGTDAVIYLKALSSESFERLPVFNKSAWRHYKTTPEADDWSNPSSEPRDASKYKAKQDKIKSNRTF
Chain of [Pyruvate dehydrogenase (acetyl-transferring)] kinase isozyme 1, mitochondrial (Mus musculus) (Q8BFP9 whole entry): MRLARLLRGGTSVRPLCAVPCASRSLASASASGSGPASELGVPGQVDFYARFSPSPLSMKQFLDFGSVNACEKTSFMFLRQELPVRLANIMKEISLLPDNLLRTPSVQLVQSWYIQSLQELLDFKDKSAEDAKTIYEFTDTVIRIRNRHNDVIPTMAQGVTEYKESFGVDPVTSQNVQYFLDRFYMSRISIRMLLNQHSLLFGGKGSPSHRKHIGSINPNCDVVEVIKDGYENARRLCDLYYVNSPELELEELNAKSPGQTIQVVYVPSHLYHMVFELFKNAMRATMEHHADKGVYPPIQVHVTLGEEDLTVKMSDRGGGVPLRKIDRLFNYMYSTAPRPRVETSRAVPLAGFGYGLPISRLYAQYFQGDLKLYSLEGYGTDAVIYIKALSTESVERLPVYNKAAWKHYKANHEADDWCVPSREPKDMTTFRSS

`CC(C)c1ccc(COc2ccc(CC(=O)NCCN)cc2Cl)cc1`: in [1], the EC50 is 2 µM.
Take `COc1ccc(-c2c(-c3ccc(O)cc3O)n[nH]c2C)cc1`: in data set [2], the EC50 is 648 µM.
In the case of `O=C(CCCCCCNC(=O)C(Cl)Cl)Nc1ccc([As]2SCCCS2)cc1`, the IC50 in [3] turned out to be 1.29 µM; in data set [4], 2.1 µM; in data set [5], 1.16 µM; in [6], 2.5 µM; in data set [9], 1.94 µM. For the same molecule, the IC50 at 24 h in [7] was found to be 9.66 µM. Besides, in [8], the EC50 is 0.19 µM.
For the molecule `O=C(CCCCCNC(=O)C(Cl)Cl)Nc1ccccc1[As]1SCCCS1`, the IC50 in data set [3] is 1.61 µM; in data set [4] it was 2.12 µM; in data set [5], 1.98 µM; in data set [6] it was 3.75 µM; in data set [9], 2.11 µM. For the same molecule, the IC50 at 24 h in data set [7] was found to be 6.13 µM. Besides, the EC50 in data set [8] was determined as 3.2 µM.
Regarding `CN(C)C(=O)c1ccc(S(=O)(=O)c2ccc(NC(=O)[C@@](C)(O)C(F)(F)F)c(Cl)c2)cc1`, in data set [2], the EC50 was found to be 0.087 µM.
In the case of `O=C(CCCCCCCCCCCNC(=O)C(Cl)Cl)Nc1ccc([As]2SCCCS2)cc1`, the IC50 in data set [3] was 0.8 µM; in data set [4], 1.4 µM; in data set [5] it was 0.71 µM; in data set [6], 0.94 µM; in data set [9] it was 1.53 µM. Also, the 50% inhibitory concentration (IC50) at 24 h in [7] is 1.15 µM. Besides, the EC50 in data set [8] came out at 1.3 µM.
Turning to `O=C(CCNC(=O)C(Cl)Cl)Nc1ccc([As]2SCCCS2)cc1`, the IC50 in data set [3] worked out at 1.34 µM; in data set [4], 2.68 µM; in data set [5], 1.22 µM; in data set [6] it was 3.15 µM; in [9] it was 3.2 µM. Also, the IC50 at 24 h in [7] amounted to 6.27 µM. The EC50 in data set [8] amounted to 1.9 µM.
For `O=S(=O)(c1ccc(O)cc1O)N1Cc2cc(O)cc(O)c2C1`, the EC50 in data set [2] worked out at 0.8 µM.
With `O=C(CCCCCCCCCCCNC(=O)C(Cl)Cl)Nc1ccccc1[As]1SCCCS1`, the IC50 stood at 1.35 µM in data set [3]; 2.98 µM in data set [4]; 0.92 µM in data set [5]; 1.65 µM in [6]; 1.82 µM in data set [9]. For the same molecule, the IC50 at 24 h in [7] came out at 3 µM. In data set [8], the EC50 turned out to be 1.6 µM.
Regarding `O=C(CCCCCCNC(=O)C(Cl)Cl)Nc1ccccc1[As]1SCCCS1`, the IC50 amounted to 1.98 µM in data set [3]; 2.65 µM in data set [4]; 1.63 µM in data set [5]; 1.95 µM in data set [6]; 2.94 µM in data set [9]. In addition, in [7], the IC50 at 24 h came to 8.07 µM. For the same molecule, the EC50 in data set [8] amounted to 1.2 µM.
`C[C@@H]1C[C@H]2O[C@@H]2/C=C\C=C\C(=O)Cc2c(Cl)c(O)cc(O)c2C(=O)O1` [RADICICOL]: the EC50 in data set [2] is 1100 µM.
In the case of `O=C(CCCCC[P+](c1ccccc1)(c1ccccc1)c1ccccc1)NC(COC(=O)C(Cl)Cl)(COC(=O)C(Cl)Cl)COC(=O)C(Cl)Cl`, the IC50 in data set [10] turned out to be 17 µM.
On to `O=C(CCCNC(=O)C(Cl)Cl)Nc1ccccc1[As]1SCCCS1`, for which the IC50 in data set [3] was determined as 1.97 µM; in data set [4], 332 µM; in data set [5], 2.1 µM; in data set [6] it was 3.34 µM; in data set [9], 2.85 µM. For the same molecule, the IC50 at 24 h in [7] was 6.06 µM. Further, the EC50 in data set [8] came to 2.9 µM.
In the case of `CC1(C)CC[C@]2(C(=O)O)CC[C@]3(C)C(=CC[C@@H]4[C@@]5(C)CC[C@H](O[C@@H]6O[C@H](CO[C@@H]7OC[C@H](O)[C@H](O)[C@H]7O)[C@@H](O)[C@H](O)[C@H]6NC(=O)C(Cl)Cl)C(C)(C)[C@@H]5CC[C@]43C)[C@@H]2C1`, the IC50 in data set [11] was determined as 0.43 µM.
`O=C(Nc1ccc([As]2SCCCS2)cc1)C(Cl)Cl`: the inhibition result in data set [12], in data set [13], in data set [14], in data set [15], in [16] and in [17] was “inactive” in each case. Besides, the inhibition entry in data set [18] was “inactive”. Further, the IC50 in data set [3] is 0.91 µM; in data set [4] it was 0.98 µM; in data set [5] it was 0.96 µM; in data set [6], 0.69 µM; in data set [9], 1.79 µM. The IC50 at 24 h in data set [7] stood at 3.74 µM. Also, the EC50 in data set [8] turned out to be 4.7 µM.
As for `O=C(CCCNC(=O)C(Cl)Cl)Nc1ccc([As]2SCCCS2)cc1`, the 50% inhibitory concentration (IC50) in data set [3] stood at 1.34 µM; in data set [4], 2.8 µM; in data set [5], 1.25 µM; in [6], 3.52 µM; in data set [9], 6.74 µM. Besides, the IC50 at 24 h in [7] stood at 6.12 µM. The EC50 in data set [8] worked out at 1 µM.
In the case of `O=C(CCCCCCCNC(=O)C(Cl)Cl)Nc1ccc([As]2SCCCS2)cc1`, the IC50 turned out to be 1.24 µM in data set [3]; 1.73 µM in data set [4]; 1.09 µM in data set [5]; 1.89 µM in [6]; 1.9 µM in [9]. For the same molecule, the IC50 at 24 h in [7] was 9.62 µM. The EC50 in data set [8] is 0.62 µM.
Turning to `O=C(CCCCCCCNC(=O)C(Cl)Cl)Nc1ccccc1[As]1SCCCS1`, the IC50 in data set [3] is 2.88 µM; in data set [4] it was 2.98 µM; in data set [5], 1.73 µM; in data set [6], 2.09 µM; in data set [9], 2.82 µM. Moreover, in [7], the IC50 at 24 h was determined as 4.8 µM. In addition, the EC50 in [8] was determined as 1.9 µM.
Take `O=C(Nc1ccccc1[As]1SCCCS1)C(Cl)Cl`: the IC50 turned out to be 0.48 µM in data set [3]; 1.1 µM in [4]; 0.52 µM in data set [5]; 0.27 µM in data set [6]; 0.77 µM in data set [9]. Besides, the IC50 at 24 h in [7] was determined as 1.87 µM. Besides, the EC50 in [8] worked out at 9.6 µM.
Regarding `O=C(O)C(Cl)Cl`, the inhibition entry in data set [19] is “inactive”.
Take `O=C(CCNC(=O)C(Cl)Cl)Nc1ccccc1[As]1SCCCS1`: the IC50 stood at 1.68 µM in data set [3]; 3.23 µM in data set [4]; 1.61 µM in [5]; 2.54 µM in data set [6]; 3.56 µM in data set [9]. Also, the IC50 at 24 h in data set [7] came to 5.23 µM. Further, the EC50 in data set [8] is 2.6 µM.
With `O=C(O)C(Cl)Cl` [DICHLOROACETIC ACID], the IC50 is 22000 µM in data set [3]; 30000 µM in data set [4]; 20000 µM in data set [5]; 25000 µM in data set [6]; 40000 µM in data set [20]; 35000 µM in [9].
As for `O=C([O-])C(Cl)Cl.[Na+]` [SODIUM DICHLOROACETATE], the EC50 in [2] worked out at 180 µM.
In the case of `O=C(CCCCNC(=O)C(Cl)Cl)Nc1ccccc1[As]1SCCCS1`, the IC50 in data set [3] is 1.77 µM; in [4], 3.7 µM; in data set [5], 1.7 µM; in [6], 4.72 µM; in data set [9], 5.32 µM. Besides, the IC50 at 24 h in data set [7] came out at 5.58 µM. The EC50 in [8] worked out at 0.65 µM.
In the case of `O=C(CCCCNC(=O)C(Cl)Cl)Nc1ccc([As]2SCCCS2)cc1`, the IC50 in data set [3] worked out at 1.22 µM; in [4] it was 2.77 µM; in [5], 1.35 µM; in data set [6] it was 3.22 µM; in data set [9], 9.31 µM. Also, the IC50 at 24 h in data set [7] is 4.6 µM. Further, the half-maximal effective concentration (EC50) in [8] was determined as 0.93 µM.
For `C[C@@H]1CN(C(=O)[C@@](C)(O)C(F)(F)F)[C@@H](C)CN1C(=O)c1ccc(C#N)cc1`, the EC50 in [1] amounted to 0.016 µM.

Broadly, the EC50 is the concentration that produces a half-maximal response. By IC50 is commonly meant the midpoint of a concentration-inhibition curve.
